Assay results from US4393228A, “Epoxysuccinic acid derivatives” (Taisho Pharmaceutical Co., Ltd., priority 1977, dated 1983).

Target: T1, papain (Carica papaya, UniProt P00784)
T1 construct: purchased Sigma Chem. Co
T1 sequence (P00784 134-345): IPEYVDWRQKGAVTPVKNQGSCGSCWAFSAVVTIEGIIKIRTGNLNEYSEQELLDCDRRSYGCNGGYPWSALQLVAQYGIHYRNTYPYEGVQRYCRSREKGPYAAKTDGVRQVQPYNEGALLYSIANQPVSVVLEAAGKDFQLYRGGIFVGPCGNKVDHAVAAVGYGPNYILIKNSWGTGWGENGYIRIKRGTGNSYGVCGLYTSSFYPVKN
Experiment: Papain inhibitory activity (milk casein digestion)
Type: biochemical
Details: papain 80 μg/ml 0.5 ml, cysteine, pH 6.8, 1% milk casein, 40° C., 10 minutes
Experimental: Papain inhibitory activity of the compounds of this invention was assayed as follows: To 0.5 ml of a solution of papain (80 μg/ml, Sigma Chem. Co., 2x cry.), were added 0.25 ml of 40 mM cysteine dissolved in 20 mM disodium ethylenediamine tetraacetic acid solution adjusted pH to 6.8 with sodium hydroxide and 0.25 ml of 33 mM phosphate buffer (pH 6.8) with or without inhibitor. After incubation at 40° C. for 15 minutes, the resulting mixture was added to 5 ml of 1% milk casein solution in the same buffer as described above, and further incubated at 40° C. for 10 minutes. Then the mixture was mixed with 5 ml of 0.44 M trichloroacetic acid solution and followed by filtration with a sheet of Toyo filter paper No. 4. The extinction of the filtrate was read at 280 nm. The percent inhibition was calculated from the formula, 100 x (B-A)/B; wherein B stands for the absorbance without inhibitor and A for the absorbance with inhibitor. The compound Nos. in Table 1 are as defined in Examples as described hereinafter.

Row | SMILES | ID50 (amount of inhibitor for 50% inhibition)
1 | C[C@H]1CCCC[C@H]1OC(=O)[C@@H]1O[C@H]1C(=O)O[C@@H]1CCCC[C@@H]1C (relative stereo) [EP-3, di-2'-cis-methylcyclohexyl epoxysuccinate] | 2.12 γ
2 | C[C@H]1CCCC[C@H]1OC(=O)[C@@H]1O[C@H]1C(=O)O (relative stereo) [EP-4, 2'-cis-methylcyclohexyl potassium epoxysuccinate] | 0.09 γ
3 | C[C@@H]1CCCC[C@H]1OC(=O)[C@@H]1O[C@H]1C(=O)O[C@@H]1CCCC[C@H]1C (relative stereo) [EP-5, di-2'-trans-methylcyclohexyl epoxysuccinate] | 2.36 γ
4 | C[C@@H]1CCCC[C@H]1OC(=O)[C@@H]1O[C@H]1C(=O)O (relative stereo) [EP-6, 2'-trans-methylcyclohexyl potassium epoxysuccinate] | 0.09 γ
5 | O=C(O[C@@H]1CCCC[C@H]1Cl)[C@@H]1O[C@H]1C(=O)O[C@@H]1CCCC[C@H]1Cl (relative stereo) [EP-7, di-2'-trans-chlorocyclohexyl epoxysuccinate] | 2.25 γ
6 | O=C(O)[C@@H]1O[C@H]1C(=O)O[C@@H]1CCCC[C@H]1Cl (relative stereo) [EP-8, 2'-trans-chlorocyclohexyl potassium epoxysuccinate] | 0.07 γ
7 | C[C@H]1CC[C@H](OC(=O)[C@@H]2O[C@H]2C(=O)O[C@H]2CC[C@H](C)CC2)CC1 (relative stereo) [EP-15, di-4'-trans-methylcyclohexyl epoxysuccinate] | 1.69 γ
8 | C[C@H]1CC[C@H](OC(=O)[C@@H]2O[C@H]2C(=O)O)CC1 (relative stereo) [EP-16, 4'-trans-methylcyclohexyl potassium epoxysuccinate] | 0.08 γ
9 | C[C@H]1CC[C@@H](OC(=O)[C@@H]2O[C@H]2C(=O)O)CC1 (relative stereo) [EP-18, 4'-cis-methylcyclohexyl potassium epoxysuccinate] | 0.08 γ
10 | O=C(O[C@H]1CC[C@H](Cl)CC1)[C@@H]1O[C@H]1C(=O)O[C@H]1CC[C@H](Cl)CC1 (relative stereo) [EP-19, di-4'-trans-chlorocyclohexyl epoxysuccinate] | 2.01 γ
11 | O=C(O)[C@@H]1O[C@H]1C(=O)O[C@H]1CC[C@H](Cl)CC1 (relative stereo) [EP-20, 4'-trans-chlorocyclohexyl potassium epoxysuccinate] | 0.06 γ
12 | O=C(OC1CC1)[C@@H]1O[C@H]1C(=O)OC1CC1 (relative stereo) [EP-27, dicyclopropyl epoxysuccinate] | 20.00 γ
13 | O=C(O)[C@@H]1O[C@H]1C(=O)OC1CC1 (relative stereo) [EP-28, cyclopropyl potassium epoxysuccinate] | 0.80 γ
14 | O=C(O[C@@H]1CCC[C@H]1Br)[C@@H]1O[C@H]1C(=O)O[C@@H]1CCC[C@H]1Br (relative stereo) [EP-33, di-2'-trans-bromocyclopentylepoxysuccinate] | 3.20 γ
15 | O=C(O)[C@@H]1O[C@H]1C(=O)O[C@@H]1CCC[C@H]1Br (relative stereo) [EP-34, 2'-trans-bromocyclopentyl potassium epoxysuccinate] | 0.07 γ
16 | O=C(OC1CCCCCCC1)[C@@H]1O[C@H]1C(=O)OC1CCCCCCC1 (relative stereo) [EP-35, dicyclooctyl epoxysuccinate] | 0.98 γ
17 | O=C(O)[C@@H]1O[C@H]1C(=O)OC1CCCCCCC1 (relative stereo) [EP-36, cyclooctyl potassium epoxysuccinate] | 0.07 γ
18 | O=C(OC1C2CC3CC(C2)CC1C3)[C@@H]1O[C@H]1C(=O)OC1C2CC3CC(C2)CC1C3 (relative stereo) [EP-37, di-2-adamantyl epoxysuccinate] | 0.22 γ
19 | O=C(O)[C@@H]1O[C@H]1C(=O)OC1C2CC3CC(C2)CC1C3 (relative stereo) [EP-38, 2-adamantyl potassium epoxysuccinate] | 0.06 γ
20 | O=C(OCC1CC1)[C@@H]1O[C@H]1C(=O)OCC1CC1 (relative stereo) [EP-39, dicyclopropanemethyl epoxysuccinate] | 4.39 γ
21 | O=C(O)[C@@H]1O[C@H]1C(=O)OCC1CC1 (relative stereo) [EP-40, cyclopropanemethyl potassium epoxysuccinate] | 0.34 γ

Row | SMILES | ID50 (amount of inhibitor for 50% inhibition)
22 | O=C(OCC1CCCCC1)[C@@H]1O[C@H]1C(=O)OCC1CCCCC1 (relative stereo) [EP-41, dicyclohexanemethyl epoxysuccinate] | 0.27 γ
23 | O=C(O)[C@@H]1O[C@H]1C(=O)OCC1CCCCC1 (relative stereo) [EP-42, cyclohexanemethyl potassium epoxysuccinate] | 0.06 γ
24 | O=C(OCC1CCCC1)[C@@H]1O[C@H]1C(=O)OCC1CCCC1 (relative stereo) [EP-43, dicyclopentanemethyl epoxysuccinate] | 0.45 γ
25 | O=C(O)[C@@H]1O[C@H]1C(=O)OCC1CCCC1 (relative stereo) [EP-44, cyclopentanemethyl potassium epoxysuccinate] | 0.07 γ
26 | O=C(OCC12CC3CC(CC(C3)C1)C2)[C@@H]1O[C@H]1C(=O)OCC12CC3CC(CC(C3)C1)C2 (relative stereo) [EP-47, di-1-adamantanemethyl epoxysuccinate] | 0.25 γ
27 | O=C(O)[C@@H]1O[C@H]1C(=O)OCC12CC3CC(CC(C3)C1)C2 (relative stereo) [EP-48, 1-adamantanemethyl potassium epoxysuccinate] | 0.08 γ
28 | O=C(OCCC12CC3CC(CC(C3)C1)C2)[C@@H]1O[C@H]1C(=O)OCCC12CC3CC(CC(C3)C1)C2 (relative stereo) [EP-49, di-2-(1-adamantane)ethyl epoxysuccinate] | 0.85 γ
29 | O=C(O)[C@@H]1O[C@H]1C(=O)OCCC12CC3CC(CC(C3)C1)C2 (relative stereo) [EP-50, 2-(1-adamantane)ethyl potassium epoxysuccinate] | 0.09 γ
30 | O=C(OC1CC2CCC1CC2)[C@@H]1O[C@H]1C(=O)OC1CC2CCC1CC2 (relative stereo) [EP-51, dibicyclo [2,2,2] octyl epoxysuccinate] | 0.30 γ
31 | O=C(O)[C@@H]1O[C@H]1C(=O)OC1CC2CCC1CC2 (relative stereo) [EP-52, bicyclo [2,2,2] octyl potassium epoxysuccinate] | 0.07 γ
32 | O=C(OCCC1CCCC1)[C@@H]1O[C@H]1C(=O)OCCC1CCCC1 (relative stereo) [EP-59, di-2-cyclopentaneethyl epoxysuccinate] | 0.18 γ
33 | O=C(O)[C@@H]1O[C@H]1C(=O)OCCC1CCCC1 (relative stereo) [EP-60, 2-cyclopentaneethylpotassium epoxysuccinate] | 0.10 γ
34 | O=C(OCCC1CCCCC1)[C@@H]1O[C@H]1C(=O)OCCC1CCCCC1 (relative stereo) [EP-61, di-2-cyclohexaneethyl epoxysuccinate] | 1.18 γ
35 | O=C(O)[C@@H]1O[C@H]1C(=O)OCCC1CCCCC1 (relative stereo) [EP-62, 2-cyclohexaneethyl potassium epoxysuccinate] | 0.08 γ
36 | O=C(OCCCC1CCCC1)[C@@H]1O[C@H]1C(=O)OCCCC1CCCC1 (relative stereo) [EP-63, di-3-cyclopentanepropyl epoxysuccinate] | 54.82 γ
37 | O=C(O)[C@@H]1O[C@H]1C(=O)OCCCC1CCCC1 (relative stereo) [EP-64, 3-cyclopentanepropyl potassium epoxysuccinate] | 0.10 γ
38 | O=C(OCCCC1CCCCC1)[C@@H]1O[C@H]1C(=O)OCCCC1CCCCC1 (relative stereo) [EP-65, di-3-cyclohexanepropyl epoxysuccinate] | 69.44 γ
39 | O=C(O)[C@@H]1O[C@H]1C(=O)OCCCC1CCCCC1 (relative stereo) [EP-66, 3-cyclohexanepropyl potassium epoxysuccinate] | 0.08 γ
40 | O=C(OCCCCC1CCCCC1)[C@@H]1O[C@H]1C(=O)OCCCCC1CCCCC1 (relative stereo) [EP-67, di-4-cyclohexanebutyl epoxysuccinate] | 93.28 γ
41 | O=C(O)[C@@H]1O[C@H]1C(=O)OCCCCC1CCCCC1 (relative stereo) [EP-68, 4-cyclohexanebutyl potassium epoxysuccinate] | 0.10 γ
